Reference: paper PMC3961306, “Comparison of the Cancer Gene Targeting and Biochemical Selectivities of All Targeted Kinase Inhibitors Approved for Clinical Use” (PLoS ONE, 2014)

How the values were obtained:
Test in all cases: Kinase profiling in a biochemical assay panel (mobility shift assays and ELISA), %-inhibition at 1 μM; selectivity entropy
[1] = target: T1, panel of more than 300 wild-type and mutant kinases (313 kinase panel) (Homo sapiens, UniProt O00418); settings: kinase EEF2K; compound at 1 μM
T1 sequence (O00418 1-725): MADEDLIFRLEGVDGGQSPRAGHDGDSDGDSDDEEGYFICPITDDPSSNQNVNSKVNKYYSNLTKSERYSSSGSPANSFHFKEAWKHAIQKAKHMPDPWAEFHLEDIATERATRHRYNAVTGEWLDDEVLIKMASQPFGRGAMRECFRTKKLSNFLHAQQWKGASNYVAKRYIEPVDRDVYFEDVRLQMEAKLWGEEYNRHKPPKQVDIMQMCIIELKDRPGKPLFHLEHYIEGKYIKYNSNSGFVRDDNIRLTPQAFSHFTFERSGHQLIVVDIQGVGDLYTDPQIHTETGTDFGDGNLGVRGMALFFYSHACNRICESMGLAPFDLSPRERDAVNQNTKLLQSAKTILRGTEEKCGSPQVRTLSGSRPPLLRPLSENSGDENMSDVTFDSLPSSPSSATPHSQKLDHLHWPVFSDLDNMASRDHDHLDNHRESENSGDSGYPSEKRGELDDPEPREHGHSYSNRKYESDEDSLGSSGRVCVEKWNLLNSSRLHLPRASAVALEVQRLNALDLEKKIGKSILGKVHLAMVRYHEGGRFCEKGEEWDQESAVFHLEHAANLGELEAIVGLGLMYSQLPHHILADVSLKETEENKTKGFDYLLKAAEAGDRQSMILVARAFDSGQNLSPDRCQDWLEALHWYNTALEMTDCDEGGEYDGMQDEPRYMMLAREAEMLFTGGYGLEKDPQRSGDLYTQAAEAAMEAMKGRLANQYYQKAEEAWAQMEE

[2] = target: panel of more than 300 wild-type and mutant kinases (313 kinase panel) (Homo sapiens, UniProt O75116)
[3] = target: panel of more than 300 wild-type and mutant kinases (313 kinase panel) (Homo sapiens, UniProt P07948)
[4] = target: panel of more than 300 wild-type and mutant kinases (313 kinase panel) (Homo sapiens, UniProt P48730)
[5] = target: panel of more than 300 wild-type and mutant kinases (313 kinase panel) (Homo sapiens, UniProt P49760)
[6] = target: panel of more than 300 wild-type and mutant kinases (313 kinase panel) (Homo sapiens, UniProt P50750)
[7] = target: T2, panel of more than 300 wild-type and mutant kinases (313 kinase panel) (Homo sapiens, UniProt P51813); settings: kinase BMX; 1 μM compound
T2 sequence (P51813 1-675): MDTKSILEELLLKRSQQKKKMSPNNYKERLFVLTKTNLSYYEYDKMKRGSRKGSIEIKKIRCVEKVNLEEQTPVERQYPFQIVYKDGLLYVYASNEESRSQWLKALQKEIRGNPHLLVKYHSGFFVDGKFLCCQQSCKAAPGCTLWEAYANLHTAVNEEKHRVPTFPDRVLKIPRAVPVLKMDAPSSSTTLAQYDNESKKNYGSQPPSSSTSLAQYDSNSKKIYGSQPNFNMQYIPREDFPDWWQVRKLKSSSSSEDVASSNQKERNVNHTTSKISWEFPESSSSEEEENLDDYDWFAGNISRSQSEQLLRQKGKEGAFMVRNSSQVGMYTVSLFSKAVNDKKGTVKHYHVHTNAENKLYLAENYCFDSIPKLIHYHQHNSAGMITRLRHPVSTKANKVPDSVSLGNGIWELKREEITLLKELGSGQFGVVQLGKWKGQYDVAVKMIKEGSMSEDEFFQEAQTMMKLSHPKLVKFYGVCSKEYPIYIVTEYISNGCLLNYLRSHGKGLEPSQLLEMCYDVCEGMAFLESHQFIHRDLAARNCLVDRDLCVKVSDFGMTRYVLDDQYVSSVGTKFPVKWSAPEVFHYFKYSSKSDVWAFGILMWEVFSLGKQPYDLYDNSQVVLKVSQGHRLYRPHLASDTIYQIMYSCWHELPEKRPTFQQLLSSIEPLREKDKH

[8] = target: panel of more than 300 wild-type and mutant kinases (313 kinase panel) (Homo sapiens, UniProt Q13153); settings: kinase PAK1; 1 μM
[9] = target: panel of more than 300 wild-type and mutant kinases (313 kinase panel) (Homo sapiens, UniProt Q14680)
[10] = target: panel of more than 300 wild-type and mutant kinases (313 kinase panel) (Homo sapiens, UniProt Q16288); settings: kinase TRKC; 1 μM
[11] = target: panel of more than 300 wild-type and mutant kinases (313 kinase panel) (Homo sapiens, UniProt Q8IY84)
[12] = target: panel of more than 300 wild-type and mutant kinases (313 kinase panel) (Homo sapiens, UniProt Q9P286)
[13] = target: panel of more than 300 wild-type and mutant kinases (313 kinase panel) (Homo sapiens, UniProt P49759); settings: kinase CLK1; 1 μM compound
[14] = kinase CDK9/CycT1, 1 μM compound

Chain of panel of more than 300 wild-type and mutant kinases (313 kinase panel) (Homo sapiens, UniProt Q9P286) (Q9P286 whole entry, change not shown): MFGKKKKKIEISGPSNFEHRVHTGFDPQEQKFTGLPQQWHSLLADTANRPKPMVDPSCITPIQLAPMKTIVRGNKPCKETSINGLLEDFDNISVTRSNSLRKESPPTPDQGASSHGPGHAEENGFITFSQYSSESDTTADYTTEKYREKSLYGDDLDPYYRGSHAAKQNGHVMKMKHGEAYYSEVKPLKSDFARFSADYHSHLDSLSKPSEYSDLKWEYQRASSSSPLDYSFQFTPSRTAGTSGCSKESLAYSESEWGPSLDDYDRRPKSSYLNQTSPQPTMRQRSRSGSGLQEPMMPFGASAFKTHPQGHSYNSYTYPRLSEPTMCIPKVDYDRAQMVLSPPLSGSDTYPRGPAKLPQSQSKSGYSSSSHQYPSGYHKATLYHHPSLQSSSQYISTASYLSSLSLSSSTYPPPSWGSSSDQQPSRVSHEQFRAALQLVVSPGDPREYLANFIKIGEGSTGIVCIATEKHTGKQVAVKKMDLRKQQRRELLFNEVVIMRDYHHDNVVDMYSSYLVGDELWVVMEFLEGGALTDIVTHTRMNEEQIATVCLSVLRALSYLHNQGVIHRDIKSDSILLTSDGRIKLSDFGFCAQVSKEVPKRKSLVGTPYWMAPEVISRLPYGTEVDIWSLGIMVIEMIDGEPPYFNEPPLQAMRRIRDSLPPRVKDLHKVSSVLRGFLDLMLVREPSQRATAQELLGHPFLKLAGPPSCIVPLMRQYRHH
Chain of panel of more than 300 wild-type and mutant kinases (313 kinase panel) (Homo sapiens, UniProt P49759) (P49759 whole entry, change not shown): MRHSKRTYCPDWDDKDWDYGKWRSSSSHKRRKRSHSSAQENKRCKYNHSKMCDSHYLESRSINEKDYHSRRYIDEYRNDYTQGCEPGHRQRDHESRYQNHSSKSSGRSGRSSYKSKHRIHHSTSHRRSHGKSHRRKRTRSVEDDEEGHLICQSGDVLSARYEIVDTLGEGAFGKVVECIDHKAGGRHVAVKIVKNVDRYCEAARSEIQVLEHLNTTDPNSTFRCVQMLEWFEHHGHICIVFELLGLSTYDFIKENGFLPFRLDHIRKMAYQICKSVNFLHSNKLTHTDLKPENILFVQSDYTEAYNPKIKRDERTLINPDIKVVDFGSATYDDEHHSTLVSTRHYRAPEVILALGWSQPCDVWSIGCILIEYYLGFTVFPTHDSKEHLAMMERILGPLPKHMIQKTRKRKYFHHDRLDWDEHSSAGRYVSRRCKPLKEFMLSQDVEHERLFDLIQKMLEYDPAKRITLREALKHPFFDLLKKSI

SMILES | %-inhibition of EEF2K [1] [%] | %-inhibition of ROCK2 ([2]; kinase ROCK2, 1 μM) [%] | %-inhibition of LYNa ([3]; kinase LYNa, compound at 1 μM) [%] | %-inhibition, CK1δ ([4]; kinase CK1δ, 1 μM compound) [%] | %-inhibition, CLK2 ([5]; kinase CLK2, 1 μM compound) [%] | %-inhibition, CDK9/CycT1 [6, 14] [%] | %-inhibition, BMX [7] [%] | %-inhibition of PAK1 [8] [%] | %-inhibition of MELK ([9]; kinase MELK, compound at 1 μM) [%] | %-inhibition of TRKC [10] [%] | %-inhibition of MGC42105 ([11]; kinase MGC42105, 1 μM) [%] | %-inhibition of PAK5 ([12]; kinase PAK5, 1 μM) [%] | %-inhibition, CLK1 [13] [%] | other results
CO[C@H]1C[C@@H]2CC[C@@H](C)[C@@](O)(O2)C(=O)C(=O)N2CCCC[C@H]2C(=O)O[C@H]([C@H](C)C[C@@H]2CC[C@@H](OC(=O)C(C)(CO)CO)[C@H](OC)C2)CC(=O)[C@H](C)/C=C(\C)[C@@H](O)[C@@H](OC)C(=O)[C@H](C)C[C@H](C)/C=C/C=C/C=C/1C [temsirolimus] | -6 | -5.66 | -4.48 | -5.47 | -4.4 | -3.29 | -7 | -3.8 | -1.66 | -6.53 | -11 | -6 |  | 
Cc1nc(Nc2ncc(C(=O)Nc3c(C)cccc3Cl)s2)cc(N2CCN(CCO)CC2)n1 [dasatinib] |  |  |  |  |  | -0.25 |  |  |  |  | -0.563 |  |  | 
COc1cc2c(Nc3ccc(Br)cc3F)ncnc2cc1OCC1CCN(C)CC1 [vandetanib] | -10 | -0.708 | 93 | 6 | -18 |  | 18 | -5.28 | 1.19 | 15 | -17 | -3.26 | 14 | 
CC(C)(C)c1nc(-c2cccc(NS(=O)(=O)c3c(F)cccc3F)c2F)c(-c2ccnc(N)n2)s1 [dabrafenib] |  | 14 |  | 8.51 | 0.875 |  | 55 |  | 82 | 81 | -8.54 | 21 | 7 | 
N#CC[C@H](C1CCCC1)n1cc(-c2ncnc3[nH]ccc23)cn1 [ruxolitinib] | -6 | 87 | 13 | 12 | 15 | -3.29 | 6.6 | -5.62 | 34 |  | -13 | 14 | 33 | 
C[C@@H](Oc1cc(-c2cnn(C3CCNCC3)c2)cnc1N)c1c(Cl)ccc(F)c1Cl [crizotinib] | -4.6 | 4.25 | 42 | 9 | -6 | 5 |  | -4 | 5.47 |  | -6 | 7 | 13 | 
O=S(=O)(c1cccc2cnccc12)N1CCCNCC1 [fasudil] | -3.43 |  | -1.61 | -3.4 | -0.292 | 26 | -4 |  | 25 | -5.34 | 3.31 | -6.61 | 32 | 
CS(=O)(=O)CCNCc1ccc(-c2ccc3ncnc(Nc4ccc(OCc5cccc(F)c5)c(Cl)c4)c3c2)o1 [lapatinib] | -2.58 |  |  |  |  |  | 9 |  | -3.71 | 4 |  |  | 14 | %-inhibition of ROCK2 ([2]; 1 µM): -2%; %-inhibition of LYNa ([3]; 1 µM): 9%; %-inhibition, CK1δ ([4]; 1 µM): -3.34%; %-inhibition, CLK2 ([5]; 1 µM): 3.6%; %-inhibition, CDK9/CycT1 ([6]; 1 µM): 0.501%; %-inhibition of PAK5 ([12]; 1 µM): -0.566%
Cc1cn(-c2cc(NC(=O)c3ccc(C)c(Nc4nccc(-c5cccnc5)n4)c3)cc(C(F)(F)F)c2)cn1 [nilotinib] | 6.34 | -27 | 85 | -17 | 1.71 | 9 |  | -159 |  |  |  | 3.39 | 81 | %-inhibition of MELK ([9]; 1 µM): 23%; %-inhibition of MGC42105 ([11]; 1 µM): -48%
COc1cc(Nc2c(C#N)cnc3cc(OCCCN4CCN(C)CC4)c(OC)cc23)c(Cl)cc1Cl [bosutinib] | -7 | 28 | 93 |  | -0.431 | -4.22 |  |  |  |  | 32 | 17 |  | 
CCN(CC)CCNC(=O)c1c(C)[nH]c(/C=C2\C(=O)Nc3ccc(F)cc32)c1C [sunitinib] |  |  |  | 32 | 97 |  |  |  | 95 |  |  | 35 |  | 
Cc1ccc(C(=O)Nc2ccc(CN3CCN(C)CC3)c(C(F)(F)F)c2)cc1C#Cc1cnc2cccnn12 [ponatinib] | -4 | 63 | 100 |  | -3.36 | 16 |  |  |  | 103 | -5.68 | -0.481 |  | 
